From patent US9011879B2 (priority 2009, dated 2015)

How the values were obtained:
sympathetic neurons = details: cited from earlier work
[1] = tested on: kidney norepinephrine (NE); parameters: species or system porcine; details: pig, in vivo
renal arteries = details: pig, in vivo

Row | Compound | concentration accumulated within neurons in vivo (sympathetic neurons) | average NE level in renal cortex tissue [1] | reduction in renal cortex NE [1] | perivascular indications of denervation (histology) (renal arteries)
1 | N=C(N)NCCN1CCCCCCC1 [guanethidine, Guanidine, [2-(hexahydro-1(2H)-azocinyl)ethyl]-] | 500 to 1000 µM | – | – | –
2 | Guanidine, [2-(hexahydro-1(2H)-azocinyl)ethyl]-, sulfate (1:1) [Guanethidine monosulfate] | – | 64 | 86% | nerve degeneration characterized by hypervacuolization and eosinophilia
